Patent US10815276B2, “Cell penetrating peptides and methods of making and using thereof” (Entrada Therapeutics, Inc., priority 2014, dated 2020)
Starred links: 1 amine or outer side, 2 acyl side, 3 side chain; linkers in the order of their positions; H or OH if unused. Positions of bridges follow the written chain, without caps; N, C: chain ends. Non-standard residues stand in square brackets, D forms with d. Residues, ends and D or L forms follow the SMILES beside them. Trimesoyl = O=C(c1cc(C(=O)[*:2])cc(C(=O)[*:3])c1)[*:1]; Phe(4-Cl) = N[C@@H](Cc1ccc(Cl)cc1)C(=O)O; Phe(4-F) = N[C@@H](Cc1ccc(F)cc1)C(=O)O; 2Nal = N[C@@H](Cc1ccc2ccccc2c1)C(=O)O; dPhe(2-F) = N[C@H](Cc1ccccc1F)C(=O)O; Pip = O=C(O)[C@@H]1CCCCN1; Dap = NC[C@H](N)C(=O)O; Sar = CNCC(=O)O

Target: T1, Pin1 (Homo sapiens, UniProt Q13526, S16A/Y23A)
T1 construct: The full-length human S16A/Y23A mutant Pin1 was expressed and purified from E. coli; made in house
T1 sequence (Q13526 whole entry S16A/Y23A): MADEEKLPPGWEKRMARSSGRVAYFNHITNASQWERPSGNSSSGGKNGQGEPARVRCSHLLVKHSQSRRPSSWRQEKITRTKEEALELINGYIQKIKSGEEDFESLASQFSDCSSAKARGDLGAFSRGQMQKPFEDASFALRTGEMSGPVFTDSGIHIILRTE
Test: Pin1 binding by FA (FITC-labeled peptides)
Settings: for Kd: FITC-labeled peptide, FA, read-out: KD
Experimental: FA experiments were carried out by incubating 100 nM FITC-labeled peptide with varying concentrations of protein in 20 mM HEPES (pH 7.4), 150 mM NaCl, 2 mM magnesium acetate, and 0.1% bovine serum albumin (BSA) for 2 h at room temperature. The FA values were measured on a Molecular Devices Spectramax M5 plate reader, with excitation and emission wavelengths at 485 and 525 nm, respectively. Equilibrium dissociation constants (KD) were determined by plotting the FA values as a function of protein concentration and fitting the curve to the following equation:

| SMILES | Kd [µM] | Improvement of Pin1 binding by D-Phe for D-Ala vs parent peptide (peptide 22 vs 3, peptide 27 vs 4) [fold] |
| --- | --- | --- |
| CN1CC(=O)N[C@H](CC(=O)O)C(=O)N2CCCC[C@H]2C(=O)N[C@@H](Cc2ccc3ccccc3c2)C(=O)N[C@@H](CCCNC(=N)N)C(=O)N[C@@H](CCCNC(=N)N)C(=O)N[C@H](CCCNC(=N)N)C(=O)N[C@H]2CNC(=O)c3cc(cc(c3)C(=O)N3CCC[C@H]3C1=O)C(=O)NC[C@@H](C(=O)N[C@@H](CCCCN)C(N)=O)NC(=O)[C@H](CCCNC(=N)N)NC(=O)[C@H](CCCNC(=N)N)NC(=O)[C@H](CCCNC(=N)N)NC(=O)[C@H](CCCNC(=N)N)NC(=O)[C@H](Cc1ccc3ccccc3c1)NC(=O)[C@H](Cc1ccccc1)NC2=O [Peptide 24, bicyclo[Tm-(Pro-Sar-D-Asp-Pip-Nal-Arg-Arg-D-Arg)-Dap-(Phe-Nal-Arg-Arg-Arg-Arg-Dap)]-Lys] (P[Sar][dD][Pip][2Nal]RR[dR][Dap]F[2Nal]RRRR[Dap]K-NH2; linker N-9-16 via Trimesoyl; C-terminus assumed) | 1.31 ± 0.1 | – |
| C[C@H](O)[C@H]1NC(=O)[C@H](Cc2ccc(F)cc2)NC(=O)[C@@H](Cc2ccccc2)NC(=O)c2cc3cc(c2)C(=O)NC[C@H](NC(=O)[C@H](CCCNC(=N)N)NC(=O)[C@H](Cc2ccc4ccccc4c2)NC(=O)[C@@H]2CCCCN2C1=O)C(=O)N[C@@H](Cc1ccccc1)C(=O)N[C@@H](Cc1ccc2ccccc2c1)C(=O)N[C@@H](CCCNC(=N)N)C(=O)N[C@@H](CCCNC(=N)N)C(=O)N[C@@H](CCCNC(=N)N)C(=O)N[C@@H](CCCNC(=N)N)C(=O)N[C@H](C(=O)N[C@@H](CCCCN)C(N)=O)CNC3=O [Peptide 12, bicyclo[Tm-(D-Phe-Fpa-D-Thr-Pip-Nal-Arg)-Dap-(Phe-Nal-Arg-Arg-Arg-Arg-Dap)]-Lys] ([dF][Phe(4-F)][dT][Pip][2Nal]R[Dap]F[2Nal]RRRR[Dap]K-NH2; linker N-7-14 via Trimesoyl; C-terminus assumed) | 2.36 ± 0.48 | – |
| C[C@@H]1NC(=O)[C@H](CCCNC(=N)N)NC(=O)[C@H](Cc2ccc3ccccc3c2)NC(=O)[C@@H]2CCCCN2C(=O)[C@@H]([C@H](C)O)NC(=O)[C@H](Cc2ccc(F)cc2)NC(=O)[C@@H](Cc2ccccc2F)NC(=O)c2cc3cc(c2)C(=O)NC[C@H](NC(=O)[C@@H](Cc2ccccc2)NC1=O)C(=O)N[C@@H](Cc1ccccc1)C(=O)N[C@@H](Cc1ccc2ccccc2c1)C(=O)N[C@@H](CCCNC(=N)N)C(=O)N[C@@H](CCCNC(=N)N)C(=O)N[C@@H](CCCNC(=N)N)C(=O)N[C@@H](CCCNC(=N)N)C(=O)N[C@H](C(=O)N[C@@H](CCCCN)C(N)=O)CNC3=O [Peptide 35, bicyclo[Tm-(D-2-Fpa-Fpa-D-Thr-Pip-Nal-Arg-Ala-D-Phe)-Dap-(Phe-Nal-Arg-Arg-Arg-Arg-Dap)]-Lys] ([dPhe(2-F)][Phe(4-F)][dT][Pip][2Nal]RA[dF][Dap]F[2Nal]RRRR[Dap]K-NH2; linker N-9-16 via Trimesoyl; C-terminus assumed) | 0.59 ± 0.05 | – |
| C[C@H]1NC(=O)[C@H](Cc2ccc(O)cc2)NC(=O)[C@H](CCCNC(=N)N)NC(=O)[C@H](Cc2ccc3ccccc3c2)NC(=O)[C@@H]2CCCCN2C(=O)[C@@H](CC(=O)O)NC(=O)CN(C)C(=O)[C@@H]2CCCN2C(=O)c2cc3cc(c2)C(=O)NC[C@H](NC1=O)C(=O)N[C@@H](Cc1ccccc1)C(=O)N[C@@H](Cc1ccc2ccccc2c1)C(=O)N[C@@H](CCCNC(=N)N)C(=O)N[C@@H](CCCNC(=N)N)C(=O)N[C@@H](CCCNC(=N)N)C(=O)N[C@@H](CCCNC(=N)N)C(=O)N[C@H](C(=O)N[C@@H](CCCCN)C(N)=O)CNC3=O [Peptide 17, bicyclo[Tm-(Pro-Sar-D-Asp-Pip-Nal-Arg-Tyr-D-Ala)-Dap-(Phe-Nal-Arg-Arg-Arg-Arg-Dap)]-Lys] (P[Sar][dD][Pip][2Nal]RY[dA][Dap]F[2Nal]RRRR[Dap]K-NH2; linker N-9-16 via Trimesoyl; C-terminus assumed) | 2.17 ± 0.55 | – |
| C[C@@H]1NC(=O)[C@H](CCCNC(=N)N)NC(=O)[C@H](Cc2ccc3ccccc3c2)NC(=O)[C@@H]2CCCCN2C(=O)[C@@H]([C@H](C)O)NC(=O)[C@H](Cc2c[nH]cn2)NC(=O)[C@@H](Cc2ccccc2)NC(=O)c2cc3cc(c2)C(=O)NC[C@H](NC(=O)[C@@H](Cc2ccccc2)NC1=O)C(=O)N[C@@H](Cc1ccccc1)C(=O)N[C@@H](Cc1ccc2ccccc2c1)C(=O)N[C@@H](CCCNC(=N)N)C(=O)N[C@@H](CCCNC(=N)N)C(=O)N[C@@H](CCCNC(=N)N)C(=O)N[C@@H](CCCNC(=N)N)C(=O)N[C@H](C(=O)N[C@@H](CCCCN)C(N)=O)CNC3=O [Peptide 31, bicyclo[Tm-(D-Phe-His-D-Thr-Pip-Nal-Arg-Ala-D-Phe)-Dap-(Phe-Nal-Arg-Arg-Arg-Arg-Dap)]-Lys] ([dF]H[dT][Pip][2Nal]RA[dF][Dap]F[2Nal]RRRR[Dap]K-NH2; linker N-9-16 via Trimesoyl; C-terminus assumed) | 1.68 ± 0.17 | – |
| C[C@@H]1NC(=O)[C@H](CCCNC(=N)N)NC(=O)[C@H](Cc2ccc3ccccc3c2)NC(=O)[C@@H]2CCCCN2C(=O)[C@@H]([C@H](C)O)NC(=O)[C@H](Cc2ccc(F)cc2)NC(=O)[C@@H](Cc2ccccc2)NC(=O)c2cc3cc(c2)C(=O)NC[C@H](NC(=O)[C@@H](Cc2ccccc2)NC1=O)C(=O)N[C@@H](CCCNC(=N)N)C(=O)N[C@@H](CCCNC(=N)N)C(=O)N[C@@H](CCCNC(=N)N)C(=O)N[C@@H](CCCNC(=N)N)C(=O)N[C@@H](Cc1ccc2ccccc2c1)C(=O)N[C@@H](Cc1ccccc1)C(=O)N[C@H](C(=O)N[C@@H](CCCCN)C(N)=O)CNC3=O [Peptide 42, bicyclo[Tm-(D-Phe-Fpa-D-Thr-Pip-Nal-Arg-Ala-D-Phe)-Dap-(Arg-Arg-Arg-Arg-Nal-Phe-Dap)]-Lys] ([dF][Phe(4-F)][dT][Pip][2Nal]RA[dF][Dap]RRRR[2Nal]F[Dap]K-NH2; linker N-9-16 via Trimesoyl; C-terminus assumed) | 0.98 ± 0.18 | – |
| CN1CC(=O)N[C@H](CC(=O)O)C(=O)N2CCCC[C@H]2C(=O)N[C@@H](Cc2ccc3ccccc3c2)C(=O)N[C@@H](CCCNC(=N)N)C(=O)N[C@@H](CCCNC(=N)N)C(=O)N[C@H](Cc2ccccc2)C(=O)N[C@H]2CNC(=O)c3cc(cc(c3)C(=O)N3CCC[C@H]3C1=O)C(=O)NC[C@@H](C(=O)N[C@@H](CCCCN)C(N)=O)NC(=O)[C@H](CCCNC(=N)N)NC(=O)[C@H](CCCNC(=N)N)NC(=O)[C@H](CCCNC(=N)N)NC(=O)[C@H](CCCNC(=N)N)NC(=O)[C@H](Cc1ccc3ccccc3c1)NC(=O)[C@H](Cc1ccccc1)NC2=O [Peptide 22, bicyclo[Tm-(Pro-Sar-D-Asp-Pip-Nal-Arg-Arg-D-Phe)-Dap-(Phe-Nal-Arg-Arg-Arg-Arg-Dap)]-Lys] (P[Sar][dD][Pip][2Nal]RR[dF][Dap]F[2Nal]RRRR[Dap]K-NH2; linker N-9-16 via Trimesoyl; C-terminus assumed) | 0.48 | ~2 |
| C[C@@H]1NC(=O)[C@H](CCCNC(=N)N)NC(=O)[C@H](Cc2ccc3ccccc3c2)NC(=O)[C@@H]2CCCCN2C(=O)[C@@H]([C@H](C)O)NC(=O)[C@H](Cc2ccc(F)cc2)NC(=O)[C@@H](Cc2ccccc2)NC(=O)c2cc3cc(c2)C(=O)NC[C@H](NC(=O)[C@@H](Cc2ccccc2)NC1=O)C(=O)N[C@@H](CCCNC(=N)N)C(=O)N[C@@H](Cc1ccc2ccccc2c1)C(=O)N[C@@H](CCCNC(=N)N)C(=O)N[C@@H](Cc1ccccc1)C(=O)N[C@@H](CCCNC(=N)N)C(=O)N[C@@H](CCCNC(=N)N)C(=O)N[C@H](C(=O)N[C@@H](CCCCN)C(N)=O)CNC3=O [Peptide 44, bicyclo[Tm-(D-Phe-Fpa-D-Thr-Pip-Nal-Arg-Ala-D-Phe)-Dap-(Arg-Nal-Arg-Phe-Arg-Arg-Dap)]-Lys] ([dF][Phe(4-F)][dT][Pip][2Nal]RA[dF][Dap]R[2Nal]RFRR[Dap]K-NH2; linker N-9-16 via Trimesoyl; C-terminus assumed) | 0.45 ± 0.05 | – |
| CC(C)[C@@H]1NC(=O)[C@H](CCCNC(=N)N)NC(=O)[C@H](Cc2ccc3ccccc3c2)NC(=O)[C@@H]2CCCCN2C(=O)[C@@H](CC(=O)O)NC(=O)CN(C)C(=O)[C@@H]2CCCN2C(=O)c2cc3cc(c2)C(=O)NC[C@H](NC(=O)[C@@H](C)NC1=O)C(=O)N[C@@H](Cc1ccccc1)C(=O)N[C@@H](Cc1ccc2ccccc2c1)C(=O)N[C@@H](CCCNC(=N)N)C(=O)N[C@@H](CCCNC(=N)N)C(=O)N[C@@H](CCCNC(=N)N)C(=O)N[C@@H](CCCNC(=N)N)C(=O)N[C@H](C(=O)N[C@@H](CCCCN)C(N)=O)CNC3=O [Peptide 18, bicyclo[Tm-(Pro-Sar-D-Asp-Pip-Nal-Arg-Val-D-Ala)-Dap-(Phe-Nal-Arg-Arg-Arg-Arg-Dap)]-Lys] (P[Sar][dD][Pip][2Nal]RV[dA][Dap]F[2Nal]RRRR[Dap]K-NH2; linker N-9-16 via Trimesoyl; C-terminus assumed) | 1.75 ± 0.24 | – |
| C[C@@H]1NC(=O)[C@H](CCCNC(=N)N)NC(=O)[C@H](Cc2ccc3ccccc3c2)NC(=O)[C@@H]2CCCCN2C(=O)[C@@H]([C@H](C)O)NC(=O)[C@H](Cc2ccc(Cl)cc2)NC(=O)[C@@H](Cc2ccccc2)NC(=O)c2cc3cc(c2)C(=O)NC[C@H](NC(=O)[C@@H](Cc2ccccc2)NC1=O)C(=O)N[C@@H](Cc1ccccc1)C(=O)N[C@@H](Cc1ccc2ccccc2c1)C(=O)N[C@@H](CCCNC(=N)N)C(=O)N[C@@H](CCCNC(=N)N)C(=O)N[C@@H](CCCNC(=N)N)C(=O)N[C@@H](CCCNC(=N)N)C(=O)N[C@H](C(=O)N[C@@H](CCCCN)C(N)=O)CNC3=O [Peptide 30, bicyclo[Tm-(D-Phe-4-ClPhe-D-Thr-Pip-Nal-Arg-Ala-D-Phe)-Dap-(Phe-Nal-Arg-Arg-Arg-Arg-Dap)]-Lys] ([dF][Phe(4-Cl)][dT][Pip][2Nal]RA[dF][Dap]F[2Nal]RRRR[Dap]K-NH2; linker N-9-16 via Trimesoyl; C-terminus assumed) | 0.78 ± 0.05 | – |
